These results are taken from patent US20110152302A1, “Novel dicyclanil-based shelf stable aqueous suspension and non-aqueous solution pour-on and spray-on formulations useful for the prevention and treatment of insect infestation in animals” (priority 2009, published 2011).

A short description of data set [1]: Dicyclanil crystal formation in water with 5% surfactant. It is filed as physicochemical. The method, then:
A commercially manufactured batch of Dicyclanil Polymorph A was sourced. This crystalline form was confirmed by X-Ray Diffraction (FIG. 1). Studies were then conducted to determine the ability of various surfactants to prevent the growth of dicyclanil crystals suspended in water. Nonyl phenol and octyl phenol ethoxylates were tested in an aqueous medium according to TABLE 2.
Given the inability of the surfactants of TABLE 2 to prevent crystal growth, a further range of surfactants was tested.

Data set [2] is described as follows: Maximum solubility of dicyclanil in non-aqueous solvents. The format is physicochemical. As for the experimental part:
(§1) Materials and Methods: To determine the range of potential non-aqueous solvents to be used in producing dicyclanil solution formulations, a range of solubility studies were performed. The method employed was to add 500 mg quantities of dicyclanil into 10 mL each of solvent. If the drug dissolved it was placed into the refrigerator overnight. Samples were then taken out of the refrigerator and checked for the emergence of precipitate after the sample had been returned to room temperature. Thereafter, dicyclanil was added to each solution, 100 mg each time, until no more dicyclanil would dissolve in the solvent (i.e. dicyclanil was added until the solution reached its saturation concentration for dicyclanil).
Results: An initial range of solvents was obtained (TABLE 12).

A short description of data set [3]: Solubility of dicyclanil in solvents at 25° C. The format is physicochemical. The method, then:
as §1
As a result, a further range of solvents was tested. The solvents used for these solubility studies are defined in TABLE 13.

A short description of data set [4]: Solubility of dicyclanil in solvents at 70° C. It is filed as physicochemical.
Data set [5] in a line: Stability of dicyclanil 5% PEG200 solutions, refrigerated and accelerated temperature, 5 days. It is filed as physicochemical. As for the experimental part: Materials and Methods: A formulation was prepared in the following manner (concentration summarized in TABLE 16): • a) Loaded 90% PEG 200 • b) Added Dicyclanil with mixing • c) Made to volume with PEG 200 • d) Mixed until dissolved
Several test formulations were made to determine their stability under refrigerated (2-8° C.) and accelerated temperature (70° C.) conditions for 5 days. DIC 021, 022 and 025 were prepared according to the method described above.

The conditions of data set [6]: more active than cyromazine; cited from earlier work.
Where [7] appears, read: water with 5% surfactant, Most = >90%.

For the molecule `N#Cc1c(N)nc(NC2CC2)nc1N` [Dicyclanil, 4,6-diamino-2-(cyclopropylamino)-5-pyrimidinecarbonitrile], the “Dicyclanil Crystal Formation, 3 days” value in data set [1] (water, No surfactant added) is “Large crystals up to 200μ”. Besides, the “Dicyclanil Crystal Formation, Initial” value in data set [1] (water, No surfactant added) was “Long thin, up to 200μ”. Besides, the solubility in words entry in data set [2] (many of the commonly used veterinary topical solvents (TABLE 12)) is on record as “quite insoluble”; in data set [3] (Isopropyl Alcohol, Benzyl Alcohol, Ethyl Lactate, Propylene Glycol, Diethylene Glycol monobutyl Ether), “quite insoluble”. Further, the “Maximum solubility (% w/v)” value in data set [2] (solvent 2-Pyrollidone) is listed as 1% w/v; in data set [2] (solvent Benzyl Alcohol), under 1% w/v; in data set [2] (solvent DGBE), 2% w/v; in data set [2] (solvent Glycofurol), 6% w/v; in data set [2] (solvent IPM), under 1% w/v; in data set [2] (solvent MIGLYOL 810), under 1% w/v. For the same molecule, the “Maximum solubility (% w/v)” value is given as under 1% w/v in data set [2] (solvent MIGLYOL 840), 4% w/v in data set [2] (solvent NMP) and 1% w/v in data set [2] (solvent Propylene Glycol). Also, the “solubility of dicyclanil, soluble at 5%” value in data set [3] (25° C., BA) is “less”; in data set [3] (25° C., DGBE), “less”; in data set [3] (25° C., DGMEE), “less”; in data set [3] (25° C., DMA), “✓”; in data set [3] (25° C., DMSO), “✓”; in data set [3] (25° C., EL), “less”. The “solubility of dicyclanil, soluble at 5%” value in data set [3] (25° C., GF) is reported as “less”; in data set [3] (25° C., IPA), “less”; in data set [3] (25° C., PEG200), “✓”; in data set [3] (25° C., PEG400), “less”; in data set [3] (25° C., PG) it was “less”; in data set [4] (BA, 5%), “less”. The “solubility of dicyclanil, soluble at 5%” value in data set [4] (DGBE, 5%) is on record as “less”; in data set [4] (DGMEE, 5%), “✓”; in data set [4] (DMA, 5%), “✓”; in data set [4] (DMSO, 5%) it was “✓”; in data set [4] (EL, 5%), “✓”; in data set [4] (GF, 5%) it was “✓”. Moreover, the “solubility of dicyclanil, soluble at 5%” value is on record as “less” in data set [4] (IPA, 5%); “✓” in data set [4] (PEG400, 5%); “less” in data set [4] (PG, 5%). Besides, the “solubility of dicyclanil, soluble at 6%” value was “✓” in data set [3] (25° C., DMA); “✓” in data set [3] (25° C., DMSO); “✓” in data set [3] (25° C., PEG200). The “solubility of dicyclanil, soluble at 7%” value in data set [3] (25° C., DMA) is “✓”; in data set [3] (25° C., DMSO), “✓”; in data set [3] (25° C., PEG200) it was “✓”. Also, the “solubility of dicyclanil, soluble at 8%” value in data set [3] (25° C., DMA) is listed as “✓”; in data set [3] (25° C., DMSO), “✓”. Also, the “solubility of dicyclanil, soluble at 9%” value in data set [3] (25° C., DMA) is listed as “✓”; in data set [3] (25° C., DMSO), “✓”. Besides, the “solubility of dicyclanil, soluble at 10%” value in data set [3] (25° C., DMA, 10%) is “✓”; in data set [4] (DMA), “✓”; in data set [4] (DMSO) it was “✓”; in data set [4] (GF) it was “✓”. The “solubility of dicyclanil, soluble at 11%” value in data set [3] (25° C., DMA, 11%) is “✓”. For the same molecule, the “solubility of dicyclanil, soluble at 12%” value in data set [3] (25° C., DMA, 12%) is “✓”. The “solubility of dicyclanil, soluble at 13%” value in data set [3] (25° C., DMA, 13%) is “✓”. Besides, in data set [3] (25° C., DMA, 14%), the “solubility of dicyclanil, soluble at 14%” value is recorded as “✓”. The “solubility of dicyclanil, soluble at 15%” value in data set [3] (25° C., DMA, 15%) is “✓”; in data set [4] (DMA) it was “✓”; in data set [4] (DMSO), “✓”. Also, the “solubility of dicyclanil, soluble at 16%” value in data set [3] (25° C., DMA, 16%) is “✓”. Also, the “solubility of dicyclanil, soluble at 17%” value in data set [3] (25° C., DMA, 17%) is listed as “✓”. Besides, the “solubility of dicyclanil, soluble at 18%” value in data set [3] (25° C., DMA, 18%) is given as “✓”. In addition, in data set [3] (at 25° C., PEG200), the “solubility of dicyclanil in PEG200” value was found to be 7%. Further, the “solubility of dicyclanil in PEG400” value in data set [3] (at 25° C., PEG400) was “less than 5%”. In addition, the “solubility of dicyclanil, soluble at 20%” value in data set [4] (DMA) and in data set [4] (DMSO) was “✓” throughout. In addition, the “solubility of dicyclanil, soluble at 25%” value in data set [4] (DMA) and in data set [4] (DMSO) was “✓” in each case. In addition, the “solubility in PEG (in words)” value in data set [5] (PEG) was “good solubility”. The “concentration at which dicyclanil remains stable without additional excipients” value in data set [5] (PEG-based formulations) was “at least 5%”. In addition, the “activity relative to cyromazine” value in data set [6] is on record as 10 times.

With `CCCCC(CC)COC(=O)CC(C(=O)OCC(CC)CCCC)S(=O)(=O)[O-].[Na+]` (centres unmarked) [Docusate sodium], in data set [1] (setting [7]), the “Dicyclanil Crystal Formation, 3 days” value is “Large crystals up to 200μ” and the “Dicyclanil Crystal Formation, Initial” value is recorded as “Up to 100μ”.

`CCCCCCCCCCCCOS(=O)(=O)[O-].[Na+]` [Sodium lauryl sulphate]: in data set [1] (setting [7]), the “Dicyclanil Crystal Formation, 3 days” value is listed as “Large crystals up to 200μ” and the “Dicyclanil Crystal Formation, Initial” value is “Mostly up to 200μ”.
